Entries after “also recorded” stand apart in the source; their conditions may differ. Like-named read-outs stand apart in the source and are kept apart here. Numbered stars: 1 amine (or outer) side, 2 acyl side, 3 side chain; on linkers, the order of the positions; unused ones are H or OH. Bridge positions count the residues as written; N and C are the ends. Square brackets hold non-standard residues; d marks the D form. Peptide text beside a SMILES is read from it. AMPB(E) = O=C(c1ccc(/N=N/c2ccc(CN[*:1])cc2)cc1)[*:2]
Tests used:
[1] = Photostationary state by analytical C18-RP-HPLC; format: physicochemical; conditions: for PSS (E → Z): irradiation with 340 nm, HEPES buffer; for PSS (Z → E): irradiation with 420 nm (8–17) or 528 nm (18, 19)
Procedure: All photoprobes were investigated regarding their photophysical properties in aqueous buffer (pH 7.5), mimicking the conditions of the biological functional assays.
1.3.2. Photostationary States
Photostationary states (PSS) were measured on analytical C18-RP-HPLC (flow: 0.3 mL/min, solvent A: H2O (0.05% TFA), solvent B: MeCN). To determine the PSS of the photoswitches, the samples (in 0.1 mM in HEPES buffer + 1% DMSO, pH 7.5) were irradiated first with 340 nm to get the Z-isomer. Afterwards, the sample was irradiated with 420 nm (8-17) or 528 nm (18 and 19), respectively, to get back to the E-isomer. The samples were measured at the isosbestic points.

[2] = Thermal half-life of the Z-isomer (UV/vis, 96-well plate); format: physicochemical; conditions: 25 °C; for t1/2 (thermal half-life, Figure S50): 50 µM in HEPES buffer + 0.25% DMSO, pre-irradiated with 340 nm; for t1/2 (thermal half-life Z to E): preirradiation with 340 nm, HEPES buffer pH 7.4
Excerpt: All photoprobes were investigated regarding their photophysical properties in aqueous buffer (pH 7.5), mimicking the conditions of the biological functional assays. […] Upon irradiation with 340 nm light for 10 s and monitoring via UV/vis spectroscopy, all compounds could be switched to the Z-isomer, reaching the photostationary state (PSS). Compounds 8–17 containing azobenzene could be switched back to the E-isomer by irradiation at 420 nm for 60 s. Compounds 18 and 19 containing arylazopyrazole could be reverted to the E isomer by using 528 nm light. […] The PSS, when switched to the Z-isomer, was consistently good, with a PSS of 81–95%. […] The thermal half-lives of 10 and 12 were also measured at 37 °C, representing the temperature during the biological assays. As expected, the thermal half-lives decreased, however, the ratio of E and Z isomers remained stable during the incubation period of the biological assays (1 h).
Starting materials and commercial reagents were purchased from Acros, Alfa Aesar, Fisher, Fluka, Fluorochem, Merck (Sigma-Aldrich), TCI and VWR and were used without further purification. Solvents were used in p.a. quality or dried according to common procedures if necessary. All reactions with oxygen- or moisture-sensitive reagents were carried out in glassware that was dried before use by heating under vacuum. Dry nitrogen or argon was used for an inert gas atmosphere. All NMR spectra were measured at room temperature (20 °C) using a Bruker Avance 400 (400 MHz for ^1H and 101 MHz for ^13C) or a Bruker Avance 600 (600 MHz for ^1H and 151 MHz for ^13C) NMR spectrometer. All chemical shifts are reported in δ-scale as parts per million [ppm] (multiplicity, coupling constant J, number of protons) relative to the solvent residual peaks. Coupling constants J are given in hertz [Hz]. Abbreviations used for signal multiplicity: ^1H NMR: s = singlet, d = doublet, dd = doublet of doublets, ddd = doublet of doublets of doublets, dt = doublet of triplets, t = triplet, td = triplet of doublets, q = quartet, and m = multiplet. All mass spectra were recorded on an Agilent Q-TOF 6540 UHD, Finnigan MAT SSQ 710 A, Jeol AccuTOF GCX or ThermoQuest Finnigan TSQ 7000 spectrometer. Absorption spectra were recorded on an UV/vis Agilent Cary 50 spectrometer. Thermal half-lives were measured on a 96-well plate in a Thermo Scientific Multiskan Spectrum. Analytical TLC was performed on silica gel-coated alumina plates (MN precoated TLC-sheets ALUGRAM Xtra SIL G/UV254). Visualization was done using UV light (254 or 366 nm) or staining with ninhydrin solution. Column chromatography was performed on a Biotage Isolera One automated flash purification system with a UV/vis detector. Analytical RP-HPLC was carried out on an Agilent 1220 Infinity LC System (column: P/No 00F-4251-B0, Phenomenex Luna 3 μm C18(2) 100 Å, LC column 150 mm × 2.0 mm). Purification by preparative HPLC was conducted on a preparative HPLC Agilent 1260 Infinity LC System [column: P/No 00G-4253-P0-AX, Phenomenex Luna 10 μm C18(2) 100 Å, LC column 250 mm × 21.2 mm]. The eluent systems were used as specified. After the purification process, solvents were removed by lyophilization. Switching experiments were done with a 340 nm LED (SSC VIOSYS CUD4AF1B, 500 mA, 55 mW), 420 nm LED (ILH-XC01-S410-SC211-WIR200, 800 mA, 440 mW), and 528 nm LED (OSRAM Oslon SSL 80 green, 500 mA, 34 mW). Purity of all photoprobes was >95% as determined by analytical RP-HPLC at 220 nm in DMSO.
1.3.4. Thermal Half-lives
Thermal half-lives were measured in a 96-well plate in a Thermo Scientific Multiskan® Spectrum at 25 °C (and at 37 °C for compounds 10 and 12). The solutions (50 µM in HEPES buffer + 0.25% DMSO) were pre-irradiated with 340 nm. The absorption at 335 nm was measured every 3 h. The data was analyzed using Origin 2021.
0,7 1/2 ExpDec1 Fit of Sheet1 B
Modell ExpDec1 0,35 Modell ExpDec1
0,6 Gleichung y = A 1 *e xp (-x/t1 ) + y0 Gleichung y = A 1 *e xp (-x/t1 ) + y0 […]

hV1bR = target: T1, hV1bR (Homo sapiens, UniProt P47901); test: IP-One accumulation assay, agonist function, HEK293 cells expressing hV1bR; format: cell-based; conditions: for reduced potency at V1bR compared to VP: EC50 vs VP; for EC50: supplementary CSV
T1 construct: expressed in transfected cells
T1 sequence (P47901 1-424): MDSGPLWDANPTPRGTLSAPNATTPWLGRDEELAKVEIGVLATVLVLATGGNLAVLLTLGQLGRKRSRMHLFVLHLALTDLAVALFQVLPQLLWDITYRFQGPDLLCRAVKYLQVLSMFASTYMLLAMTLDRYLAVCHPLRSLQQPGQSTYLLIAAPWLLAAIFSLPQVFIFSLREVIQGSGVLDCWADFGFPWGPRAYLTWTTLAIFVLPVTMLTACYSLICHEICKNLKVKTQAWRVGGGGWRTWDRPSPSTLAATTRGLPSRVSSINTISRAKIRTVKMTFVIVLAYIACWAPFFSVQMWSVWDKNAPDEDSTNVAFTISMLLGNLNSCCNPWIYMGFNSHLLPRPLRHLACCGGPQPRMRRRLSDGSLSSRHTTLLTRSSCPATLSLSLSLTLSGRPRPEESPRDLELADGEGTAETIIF

hV1aR [3] = target: T2, hV1aR (Homo sapiens, UniProt P37288); test: IP-One accumulation assay, antagonist function (VP displacement) at hV1aR; format: cell-based; conditions: coaddition of VP 1 nM; for antagonistic activity at V1aR: 10 and 100 μM; for VP displacement: at 10 μM
T2 construct: expressed in transfected cells
T2 sequence (P37288 whole entry): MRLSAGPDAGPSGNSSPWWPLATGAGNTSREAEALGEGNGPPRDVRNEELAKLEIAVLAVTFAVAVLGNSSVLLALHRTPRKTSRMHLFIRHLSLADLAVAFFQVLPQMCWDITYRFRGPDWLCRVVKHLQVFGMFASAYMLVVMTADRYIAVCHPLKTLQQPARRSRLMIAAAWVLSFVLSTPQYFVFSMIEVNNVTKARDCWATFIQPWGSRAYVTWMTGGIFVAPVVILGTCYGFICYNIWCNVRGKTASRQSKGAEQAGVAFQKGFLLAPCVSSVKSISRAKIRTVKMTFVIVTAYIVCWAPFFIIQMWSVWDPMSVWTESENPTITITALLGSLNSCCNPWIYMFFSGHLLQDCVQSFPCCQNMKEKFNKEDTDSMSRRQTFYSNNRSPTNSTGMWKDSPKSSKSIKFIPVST
Procedure: This was done via coaddition and prior mixing of VP (EC60 of 1 nM) and the potential antagonists 13–19. […] IP1 accumulation was measured at concentrations of 10 and 100 μM for peptides 13–19.
Figure 5 Functional screen for antagonistic activities at V1aR. […] Data represent mean ± SEM from at least three independent experiments, each performed in triplicate.
To assess the antagonistic properties of compounds 13–19, a 4-fold concentrated dilution series in stimulation buffer was prepared for each isomer. Separately, a 4-fold concentrated VP solution was prepared (4 nM, final concentration 1 nM). A 1:1 mixture of VP solution and the diluted ligand was made to end up with a 2-fold concentration of both compounds. The following steps were conducted as described above for the agonist mode. The FRET ratios (665/615 nm) were calculated and obtained values were normalized to the basal activity value (0%) and maximal effect of VP (100%). Atosiban was used as a positive control.

hV1aR [4] = target: T2, hV1aR; test: IP-One accumulation assay, agonist function, HEK293 cells expressing hV1aR; format: cell-based; conditions: for agonist activity at V1aR: concentrations up to 10 μM; for EC50: supplementary CSV, µM
[5] = target: human oxytocin receptor (human) (UniProt P30559)
Chain of human oxytocin receptor (human) (P30559 whole entry): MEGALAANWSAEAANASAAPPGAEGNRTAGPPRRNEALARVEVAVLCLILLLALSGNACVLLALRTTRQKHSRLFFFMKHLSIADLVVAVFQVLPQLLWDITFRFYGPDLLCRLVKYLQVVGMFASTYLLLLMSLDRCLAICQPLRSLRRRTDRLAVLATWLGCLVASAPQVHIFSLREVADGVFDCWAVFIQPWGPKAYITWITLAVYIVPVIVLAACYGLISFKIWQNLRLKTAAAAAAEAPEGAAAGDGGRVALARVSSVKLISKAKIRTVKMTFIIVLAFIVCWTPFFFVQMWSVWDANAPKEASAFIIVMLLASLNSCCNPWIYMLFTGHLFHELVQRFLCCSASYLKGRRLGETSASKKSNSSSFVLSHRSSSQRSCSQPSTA

[6] = tested on: GFP-conjugated human V1bR; test: Immunostaining and confocal microscopy: V1bR-GFP activation/internalization in HEK293 cells; format: cell-based; conditions: 1 nM, 60 min
Excerpt: (§1) The most promising photoprobe, 12, with a 5.3-fold photoswitch activity window at V1bR, was selected for more comprehensive in vitro experiments to validate its application scope for biological and neurological studies. As a model system, we used HEK293 cells overexpressing GFP-tagged V1bR, where receptor activation via pCREB (phosphorylated cAMP response element binding protein) and V1bR-GFP internalization can be followed through immunostaining and confocal scanning microscopy.
(§2) HEK293 cells stably expressing a C-terminal-conjugated GFP human V1bR were cultured in a full growth medium consisting of DMEM/GlutaMAX (Gibco, Thermo Fisher), containing 0.5 mg/mL G-418 (Gibco, Thermo Fisher), 1 mM sodium pyruvate (Gibco, Thermo Fisher), and 10% fetal bovine serum (Gibco, Thermo Fisher). […]
(§3) Coverslips were first incubated with 5% normal donkey serum (Jackson Immuno Research), 2% bovine serum albumin (Sigma-Aldrich, Merck), and 0.2% Triton X-100 (Sigma-Aldrich, Merck) to block nonspecific protein binding. […] Images were analyzed with ZEN pro (Zeiss) ImageJ 1.52a and collated in CorelDraw 2019. To determine pCREB activation, the fluorescence was normalized to the negative control (cells treated with a serum-free medium without G-418 instead of 12), as already minor receptor interactions can lead to pCREB activity in overexpression systems.

pCREB = test: Immunostaining and confocal microscopy: pCREB activation in HEK293 cells overexpressing V1bR-GFP; format: cell-based, human; conditions: 1 nM, 60 min, normalized to negative control; VP 10 nM positive control
Excerpt: as §1, §2, §3

[7] = read-out: activity E-isomer V1bR
[8] = read-out: activity E-isomer V1aR
[9] = read-out: activity Z-isomer V1aR

Chain of Oxytocin (P01178 whole entry, looked up): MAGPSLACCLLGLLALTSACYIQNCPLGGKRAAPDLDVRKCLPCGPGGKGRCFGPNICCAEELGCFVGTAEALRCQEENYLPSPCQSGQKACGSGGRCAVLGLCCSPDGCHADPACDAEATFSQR

| Emax (efficacy, reference), IP-One accumulation, HEK293 cells expressing hOTR [5] | Molecule | PSS (E → Z) [1] | PSS (Z → E) [1] | t1/2 (thermal half-life, Figure S50) [2] | t1/2 (thermal half-life Z to E) [2] | reduced potency at V1bR compared to VP (hV1bR) | EC50 (hV1bR; [7]) | antagonistic activity at V1aR (hV1aR [3]) | VP displacement (hV1aR [3]) | agonist activity at V1aR (hV1aR [4]) | EC50 (hV1aR [4]; [8]) | EC50 (hV1aR [4]; [9]) | V1bR-GFP receptor activation / internalization [6] | pCREB activation (CREB phosphorylation) (pCREB) | EC50 (hV1bR; read-out: activity Z-isomer V1bR) |
| --- | --- | --- | --- | --- | --- | --- | --- | --- | --- | --- | --- | --- | --- | --- | --- |
|  | N=C(N)NCCC[C@H](NC(=O)c1ccc(/N=N/c2ccc(CNC(=O)[C@@H]3CSSC[C@H](N)C(=O)N[C@@H](Cc4ccc(O)cc4)C(=O)N[C@@H](Cc4ccccc4)C(=O)N[C@@H](CCC(N)=O)C(=O)N[C@@H](CC(N)=O)C(=O)N3)cc2)cc1)C(=O)NCC(N)=O [compound 14, [AzbL^7]-VP] (H-CYFQNC[AMPB(E)]RG-NH2; disulfide 1-6) | 81% | 86% | 33.6 h | 33.6 h | 700–2000 fold | 4.97 ± 0.754 µM | some level of antagonistic activity | 85% | complete loss of potency | > 10 µM | > 10 µM |  |  |  |
| 100% | Oxytocin (from UniProt P01178 20-28) (peptide) |  |  |  |  |  |  |  |  |  |  |  |  |  |  |
|  | [AzbC(o,o)^1,Dap^6]-VP [compound 15] | 88% | 69% | 64.8 h | 64.8 h |  |  | some antagonistic properties |  |  |  |  |  |  |  |
|  | N=C(N)NCCC[C@H](NC(=O)[C@@H]1CCCN1C(=O)[C@@H]1CSSC[C@H](N)C(=O)N[C@@H](Cc2ccc(O)cc2)C(=O)N[C@@H](Cc2ccc(/N=N/c3ccccc3)cc2)C(=O)N[C@@H](CCC(N)=O)C(=O)N[C@@H](CC(N)=O)C(=O)N1)C(=O)NCC(N)=O [E-12] |  |  |  |  |  |  |  |  |  |  |  | did not cause any visible receptor activation or internalization; also recorded: did not induce V1bR-GFP internalization; also recorded: inactive | inactive |  |
|  | N=C(N)NCCC[C@H](NC(=O)[C@@H]1CCCN1C(=O)[C@@H]1CSSC[C@H](N)C(=O)N[C@@H](Cc2ccc(O)cc2)C(=O)N[C@@H](Cc2ccc(/N=N\c3ccccc3)cc2)C(=O)N[C@@H](CCC(N)=O)C(=O)N[C@@H](CC(N)=O)C(=O)N1)C(=O)NCC(N)=O [Z-12] |  |  |  |  |  |  |  |  |  |  |  | activated V1bR-GFP; also recorded: induced V1bR-GFP internalization | significantly (P < 0.001) activated pCREB at levels comparable to VP; also recorded: significantly induced CREB phosphorylation |  |
|  | NC(=O)CC[C@@H]1NC(=O)[C@H](Cc2ccccc2)NC(=O)[C@H](Cc2ccc(O)cc2)NC(=O)[C@@H](N)CSSC[C@@H](C(=O)NCc2ccc(/N=N/c3ccc(C(=O)NCC(N)=O)cc3)cc2)NC(=O)[C@H](CC(N)=O)NC1=O [compound 13, [AzbL^7/8]-VP] (H-CYFQNC[AMPB(E)]G-NH2; disulfide 1-6) | 85% | 79% | 12.4 h | 12 h | 700–2000 fold | 11.3 ± 1.83 µM | some level of antagonistic activity | 76% | complete loss of potency | > 10 µM | > 10 µM |  |  | 7.23 ± 1.58 µM |

From paper PMC10641831 (Journal of Medicinal Chemistry, 2023)
